Measurements reported in patent publication US9469650B2, “Melampomagnolide B derivatives” (BOARD OF TRUSTEES OF THE UNIVERSITY OF ARKANSAS, priority 2013, dated 2016).
Read-outs that look alike come from different tables or passages of the source.

Experiments:
[1] = test system: HS 578T; assay: panel of 60 human tumor cell lines, growth inhibition (Breast Cancer); conditions: for Percent Growth: HS 57BT
[2] = test system: HCC-2998; assay: panel of 60 human tumor cell lines, growth inhibition (Colon Cancer); conditions: HCC-2998
[3] = test system: NCI-H226; assay: panel of 60 human tumor cell lines, growth inhibition (Non-Small Cell Lung Cancer); conditions: NCI-H226
[4] = test system: ACHN; assay: panel of 60 human tumor cell lines, growth inhibition (Renal Cancer)
[5] = test system: SF-295; assay: panel of 60 human tumor cell lines, growth inhibition (CNS Cancer); conditions: SF-295
[6] = test system: SW-620; assay: panel of 60 human tumor cell lines, growth inhibition (Colon Cancer); conditions: SW-620
[7] = test system: HL-60(TB)
[8] = test system: CAKI-1; assay: panel of 60 human tumor cell lines, growth inhibition (Renal Cancer); conditions: CAKI-1
[9] = test system: SK-MEL-28; assay: panel of 60 human tumor cell lines, growth inhibition (Melanoma); conditions: SK-MEL-28
[10] = test system: T-47D; assay: panel of 60 human tumor cell lines, growth inhibition (Breast Cancer); conditions: T-47D

C=C1C(=O)O[C@H]2[C@H]1CC/C(COC(=O)N1CCN(C)CC1)=C\CC[C@@]1(C)O[C@@H]21 [JVM 2-44]
GI50 [1]: 16.7 µM | TGI [1]: >1.00E−4 | Percent Growth ([1]; Log10 Concentration −4.0): 5% | Percent Growth ([1]; Log10 Concentration −5.0): 63% | Percent Growth ([1]; Log10 Concentration −6.0): 90% | Percent Growth ([1]; Log10 Concentration −7.0): 86% | Percent Growth ([1]; Log10 Concentration −8.0): 90% | Mean Optical Densities ([1]; Log10 Concentration −4.0): 1.235 | Mean Optical Densities ([1]; Log10 Concentration −5.0): 1.827 | Mean Optical Densities ([1]; Log10 Concentration −6.0): 2.096 | Mean Optical Densities ([1]; Log10 Concentration −7.0): 2.057 | Mean Optical Densities ([1]; Log10 Concentration −8.0): 2.099 | GI50 [2]: 17.5 µM | TGI [2]: 3.55E−5 | Mean Optical Densities ([2]; Log10 Concentration −4.0): 0.178 | Percent Growth ([2]; Log10 Concentration −4.0): −73% | Mean Optical Densities ([2]; Log10 Concentration −5.0): 1.871 | Percent Growth ([2]; Log10 Concentration −5.0): 90% | Mean Optical Densities ([2]; Log10 Concentration −6.0): 2.049 | Percent Growth ([2]; Log10 Concentration −6.0): 103% | Mean Optical Densities ([2]; Log10 Concentration −7.0): 1.999 | Percent Growth ([2]; Log10 Concentration −7.0): 99% | Mean Optical Densities ([2]; Log10 Concentration −8.0): 1.968 | Percent Growth ([2]; Log10 Concentration −8.0): 97% | GI50 [3]: 12.4 µM | TGI [3]: 3.73E−5 | Mean Optical Densities ([3]; Log10 Concentration −4.0): 0.601 | Percent Growth ([3]; Log10 Concentration −4.0): −45% | Mean Optical Densities ([3]; Log10 Concentration −5.0): 2.002 | Percent Growth ([3]; Log10 Concentration −5.0): 60% | Mean Optical Densities ([3]; Log10 Concentration −6.0): 2.540 | Percent Growth ([3]; Log10 Concentration −6.0): 95% | Mean Optical Densities ([3]; Log10 Concentration −7.0): 2.533 | Percent Growth ([3]; Log10 Concentration −7.0): 94% | Mean Optical Densities ([3]; Log10 Concentration −8.0): 2.561 | Percent Growth ([3]; Log10 Concentration −8.0): 96% | GI50 [4]: 3.83 µM | TGI [4]: 1.59E−5 | Mean Optical Densities ([4]; Log10 Concentration −4.0): 0.112 | Percent Growth ([4]; Log10 Concentration −4.0): −77% | Mean Optical Densities ([4]; Log10 Concentration −5.0): 0.773 | Percent Growth ([4]; Log10 Concentration −5.0): 19% | Mean Optical Densities ([4]; Log10 Concentration −6.0): 1.883 | Percent Growth ([4]; Log10 Concentration −6.0): 93% | Mean Optical Densities ([4]; Log10 Concentration −7.0): 1.961 | Percent Growth ([4]; Log10 Concentration −7.0): 9B | Mean Optical Densities ([4]; Log10 Concentration −8.0): 2.010 | Percent Growth ([4]; Log10 Concentration −8.0): 101% | GI50 [5]: 70.7 µM | TGI [5]: >1.00E−4 | Mean Optical Densities ([5]; Log10 Concentration −4.0): 1.767 | Percent Growth ([5]; Log10 Concentration −4.0): 43% | Mean Optical Densities ([5]; Log10 Concentration −5.0): 2.724 | Percent Growth ([5]; Log10 Concentration −5.0): 87% | Mean Optical Densities ([5]; Log10 Concentration −6.0): 2.913 | Percent Growth ([5]; Log10 Concentration −6.0): 96% | Mean Optical Densities ([5]; Log10 Concentration −7.0): 2.707 | Percent Growth ([5]; Log10 Concentration −7.0): 87% | Mean Optical Densities ([5]; Log10 Concentration −8.0): 2.920 | Percent Growth ([5]; Log10 Concentration −8.0): 96% | GI50 [6]: 3.67 µM | TGI [6]: 1.49E−5 | Mean Optical Densities ([6]; Log10 Concentration −4.0): 0.080 | Percent Growth ([6]; Log10 Concentration −4.0): −78% | Mean Optical Densities ([6]; Log10 Concentration −5.0): 0.753 | Percent Growth ([6]; Log10 Concentration −5.0): 16% | Mean Optical Densities ([6]; Log10 Concentration −6.0): 2.599 | Percent Growth ([6]; Log10 Concentration −6.0): 94% | Mean Optical Densities ([6]; Log10 Concentration −7.0): 2.683 | Percent Growth ([6]; Log10 Concentration −7.0): 97% | Mean Optical Densities ([6]; Log10 Concentration −8.0): 2.698 | Percent Growth ([6]; Log10 Concentration −8.0): 98% | GI50 [7]: 2.53 µM | TGI [7]: 9.30E−6 | Mean Optical Densities ([7]; Log10 Concentration −4.0): 0.925 | Percent Growth ([7]; Log10 Concentration −4.0): −37% | Mean Optical Densities ([7]; Log10 Concentration −5.0): 1.432 | Percent Growth ([7]; Log10 Concentration −5.0): −3% | Mean Optical Densities ([7]; Log10 Concentration −6.0): 2.594 | Mean Optical Densities ([7]; Log10 Concentration −7.0): 2.607 | Percent Growth ([7]; Log10 Concentration −7.0): 87% | Mean Optical Densities ([7]; Log10 Concentration −8.0): 2.812 | Percent Growth ([7]; Log10 Concentration −8.0): 102% | CC50 ([7]; read-out: LC50): > 100 µM | GI50 [8]: 4 µM | TGI [8]: 1.67E−5 | Mean Optical Densities ([8]; Log10 Concentration −4.0): 0.032 | Percent Growth ([8]; Log10 Concentration −4.0): −95% | Mean Optical Densities ([8]; Log10 Concentration −5.0): 1.287 | Percent Growth ([8]; Log10 Concentration −5.0): 27% | Mean Optical Densities ([8]; Log10 Concentration −6.0): 2.593 | Percent Growth ([8]; Log10 Concentration −6.0): 84% | Mean Optical Densities ([8]; Log10 Concentration −7.0): 2.649 | Percent Growth ([8]; Log10 Concentration −7.0): 87% | Mean Optical Densities ([8]; Log10 Concentration −8.0): 2.814 | Percent Growth ([8]; Log10 Concentration −8.0): 94% | GI50 [9]: 7.03 µM | TGI [9]: 2.21E−5 | Mean Optical Densities ([9]; Log10 Concentration −4.0): 0.108 | Percent Growth ([9]; Log10 Concentration −4.0): −80% | Mean Optical Densities ([9]; Log10 Concentration −5.0): 0.950 | Percent Growth ([9]; Log10 Concentration −5.0): 42% | Mean Optical Densities ([9]; Log10 Concentration −6.0): 1.424 | Percent Growth ([9]; Log10 Concentration −6.0): 93% | Mean Optical Densities ([9]; Log10 Concentration −7.0): 1.424 | Percent Growth ([9]; Log10 Concentration −7.0): 93% | Mean Optical Densities ([9]; Log10 Concentration −8.0): 1.458 | Percent Growth ([9]; Log10 Concentration −8.0): 96% | GI50 [10]: 4.52 µM | TGI [10]: 1.94E−5 | Mean Optical Densities ([10]; Log10 Concentration −4.0): 0.323 | Percent Growth ([10]; Log10 Concentration −4.0): −56% | Mean Optical Densities ([10]; Log10 Concentration −5.0): 0.946
